The results in this text go back to ChEMBL document CHEMBL1201862, “PubChem BioAssay data set” (2004).

Some test systems named below: 786-0; A549; ACHN; BT-549; COLO 205; HCT-15; KM12; MCF7; MDA-MB-435; MDA-N; MOLT-4; Malme-3M; NCI-H23; NCI-H460; SF-295; SK-MEL-28; SK-OV-3; SN12C; TK-10; UACC-257.
Experiment in all cases: inhibition of tumour cell growth, NCI panel, 48 h

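48-hour exposure; five concentrations; linearly interpolated endpoints. GI50: concentration for 50% inhibition of growth.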 Activity calls are given as the source filed them. No stated cut-off is given here; in the data, active = GI50 up to about 1.1 µM and inactive = higher. A value given as a limit tells only on which side of the number the result lay.

Regarding `CCCCOc1ccc(NC(=N)Nc2ccc(Cl)cc2)cc1`, the GI50 in the assay with 786-0 was 11.1 µM (inactive); with A549, 0.741 µM (active); in the assay with ACHN, 0.462 µM (active); in the assay on BT-549 it was 9.57 µM (inactive); in the assay on COLO 205, 0.125 µM (active); in the assay on HCT-15 it was 9.35 µM. The GI50 in the assay on KM12 was 12.5 µM (inactive); in the assay on MCF7, 0.135 µM (active); in the assay on MDA-MB-435, 11.1 µM (inactive); in the assay with MDA-N it was 5.58 µM (inactive); in the assay on MOLT-4, 1.42 µM (inactive); in the assay with Malme-3M, 3.47 µM (inactive). Moreover, the GI50 is 1.09 µM (active) in the assay on NCI-H23; 3.7 µM (inactive) with NCI-H460; 2.3 µM (inactive) in the assay on SF-295; 13.2 µM (inactive) in the assay with SK-MEL-28; 10.6 µM (inactive) in the assay on SK-OV-3; 0.791 µM (active) with SN12C. The figures for the GI50 in the assay with TK-10 and with UACC-257 were 5.16 µM (inactive) and 0.176 µM (active), respectively.

For the molecule `CC(C)C(=O)[C@@]1(C)SC[C@H]2CCN=C21`, the GI50 in the assay on 786-0 was > 100 µM (inactive); with A549 it was > 100 µM (inactive); with ACHN, > 100 µM (inactive); in the assay with BT-549 it was > 100 µM (inactive); with COLO 205, > 100 µM (inactive); with HCT-15 it was over 100 µM. Besides, the GI50 in the assay on KM12 is > 100 µM (inactive); in the assay with MCF7, > 100 µM (inactive); in the assay with MDA-MB-435, 25.1 µM (inactive); in the assay with MDA-N, 34.8 µM (inactive); in the assay on MOLT-4, 42.9 µM (inactive); with Malme-3M, 46.7 µM (inactive). Moreover, the GI50 in the assay on NCI-H23, with NCI-H460, in the assay with SF-295, in the assay on SK-MEL-28, in the assay with SK-OV-3 and in the assay with SN12C was > 100 µM (inactive) in each case. In addition, the GI50 in the assay with TK-10 and in the assay with UACC-257 was > 100 µM (inactive) in each case.

As to `O=C(c1ccccc1)c1ccc(C(c2c(O)c3ccccc3oc2=O)c2c(O)c3ccccc3oc2=O)cc1`, the GI50 is 21.2 µM (inactive) in the assay on 786-0; 26.9 µM (inactive) in the assay on A549; 20 µM (inactive) in the assay with ACHN; 22.5 µM (inactive) in the assay with BT-549; 31.7 µM (inactive) with COLO 205; 30.5 µM with HCT-15. In addition, the GI50 is 18.7 µM (inactive) in the assay on KM12; 34.5 µM (inactive) with MCF7; 29.4 µM (inactive) with MDA-MB-435; 28.2 µM (inactive) with MDA-N; 19.5 µM (inactive) in the assay on MOLT-4; 17.9 µM (inactive) with Malme-3M. The GI50 in the assay on NCI-H23 is 20 µM (inactive); in the assay with NCI-H460, 40.8 µM (inactive); with SF-295, 21.2 µM (inactive); in the assay with SK-MEL-28, 28.8 µM (inactive); with SK-OV-3 it was 18.9 µM (inactive); with SN12C, 28.4 µM (inactive). For the same molecule, the GI50 in the assay on TK-10 was 17.9 µM (inactive); with UACC-257, 22.8 µM (inactive).

With `CC(C)NC(=O)OCc1c2c(n(C)c1COC(=O)NC(C)C)-c1cc(Cl)c(Cl)cc1CC2`, the GI50 was 37.2 µM (inactive) in the assay with 786-0; 61 µM (inactive) in the assay on A549; 34.2 µM (inactive) in the assay on ACHN; 68.2 µM (inactive) in the assay with BT-549; 31.3 µM (inactive) with COLO 205; 23.8 µM in the assay with HCT-15. Also, the GI50 in the assay with KM12 was 30.6 µM (inactive); with MCF7, 15.8 µM (inactive); in the assay on MDA-MB-435, 33.7 µM (inactive); in the assay on MDA-N, 32 µM (inactive); in the assay on MOLT-4, 18.7 µM (inactive); in the assay with Malme-3M it was 49.3 µM (inactive). In addition, the GI50 in the assay on NCI-H23 is 22.1 µM (inactive); in the assay on NCI-H460, 34.4 µM (inactive); in the assay with SF-295, 46.5 µM (inactive); with SK-MEL-28, 64.1 µM (inactive); in the assay on SK-OV-3, 33.7 µM (inactive); with SN12C, 43 µM (inactive). In addition, the values for the GI50 with TK-10 and in the assay on UACC-257 were 25.2 µM (inactive) and 28.4 µM (inactive), respectively.
